Experimental data published in publication PMC10707468, “Pharmacokinetics of Novel Dopamine Transporter Inhibitor CE-123 and Modafinil with a Focus on Central Nervous System Distribution” (International Journal of Molecular Sciences, 2023).
Read-outs that look alike come from different tables or passages of the source.

Columns and labels:
[1] = test system: cerebEND in vitro model of the blood–brain barrier; experiment: In vitro Transwell blood-brain barrier model based on mouse cell line cerebEND; format: in vitro ADME; conditions: for Clin (rate of BBB transport) / Clout (rate of BBB transport): parameter used in simulation; for Pe rat: scaled with BBB surface area 180 cm2, similar permeability in rat assumed
Text: Research on modafinil analogs has gained significant momentum in recent decades due to the compound’s unique pharmacological properties and potential therapeutic applications. The primary objectives of these studies were to identify modafinil analogs that can address a wide range of cognitive deficits and neurological conditions effectively, with a reduced risk of side effects. In our previous study, we reported a series of modafinil analogs with higher DA reuptake inhibition activity and higher selectivity for the DAT in comparison to modafinil. These improvements were achieved by making strategic modifications involving the substitution of the carboxamide moiety with five- and six-membered aromatic heterocycles. […] In addition, Kristofova et al. (2018) have used the mouse cell line cerebEND as an in vitro model to study the ability of CE-123 to cross an in vitro model of the blood–brain barrier (BBB). […] Yet, due to significant differences in the plasma pharmacokinetic (PK) profiles, governed primarily by differences in metabolism, direct comparison between two compounds after single IP dosing could be misleading.
(§1) Table S4. Parameters used in simulation exercise.
(§2) Fraction of un bound in unitless 0.252 0.797
(§3) Rate of BBB transport parameters*
(§4) Ext ent of BBB transport and intra-brain dist ribution
(§5) Unbound brain-t o-plasma unitless 0.46 0.097 concentrati on rat io, Kp,uu,brain
(§6) Unbound volume of mL/g brain 5.21 3.73 distribution in brain, Vu,brain
(§7) Additional parameters used
(§8) Infusi on rate mg/h 0.05 1.0
(§9) * Data of blood-brain barrier per meation of 100 µM CE-123 and modafinil across an in vitro Transw ell model based on mouse cell line cerebEND were included in the simulation. Experimental procedures were published previously The permeability coefficients w ere calculated according to the clearance principle deduct ing blank inserts without cells.
(§10) **Similar apparent permeability in human BBB cell culture model and rat endot helial cells was assumed.

[2] = test system: cerebEND in vitro model of the blood–brain barrier; conditions: 100 µM CE-123 and modafinil, Transwell cerebEND, blank inserts deducted; cited from earlier work
[3] = NeuroPK parameters by Combinatory Mapping Approach; format: in vivo; conditions: rat; for concentration at 4 h / Kp uu at 4 h: Sprague-Dawley, intravenous, 20 mg/kg; for concentration at 4 h: brain interstitial fluid, steady state, Equation (6), read-out: Unbound-drug concentration in brain interstitial fluid, Cu,brainISF; for Kp uu at 4 h: extent of BBB transport, Equation (4), read-out: Unbound brain-to-plasma concentration ratio, Kp,uu,brain; for Kp uu: brain slices (Vu,brain) and brain homogenate (fu,brain), Equation (5), Vu,brain·fu,brain, read-out: Unbound intracellular-to-extracellular (interstitial) concentration ratio, Kp,uu,cell; for Kp,uu at the blood–spinal cord barrier (BSCB): spinal-cord-to-plasma unbound ratio
Text: The neuropharmacokinetic (neuroPK) parameters of the novel DAT inhibitor as well as modafinil have so been far assessed based on the total drug concentration in the plasma and the entire brain, usually at a single time point in a non-dedicated PK study. Yet, the total brain-to-plasma concentration ratio (Kp,brain) is just one of the neuroPK parameters with a limited use for characterization of the extent of BBB transport. According to the Free Drug Theory, the concentration of unbound (free) drugs, particularly at a site of action like the brain, governs the pharmacological effect(s), emphasizing the significance of unbound drug concentrations in distribution processes. To this end, the unbound brain-to-plasma concentration ratio, Kp,uu,brain, is the key neuroPK parameter to obtain for the assessment of the extent of BBB transport. With the Combinatory Mapping Approach (CMA), evaluation of the neuroPK parameters of unbound drugs can be obtained in a more high-throughput mode, which makes it useful for CNS drug discovery. The CMA employs several in vivo and in vitro methods to provide a comprehensive assessment of drug properties concerning BBB transport and intra-brain distribution. In an in vivo neuroPK study, the total concentrations of drugs in the brain and plasma are determined at the steady state, which is pivotal for assessing Kp,brain (Figure 1(A1)). In parallel, in vitro investigations involve the determination of unbound fractions of drugs in the plasma (fu,plasma) and brain tissue binding properties (fu,brain) using equilibrium dialysis and the brain slice method (Vu,brain) (Figure 1(B1,C1)). Finally, a combination of these acquired parameters enables the estimation of Kp,uu,brain and the unbound drug cell partitioning coefficient (Kp,uu,cell). Kp,uu,brain represents the ratio of brain interstitial fluid (ISF) to the plasma unbound drug concentrations at the steady state, providing a quantitative description of the net BBB drug transport. This parameter relies on three compound-specific parameters, Kp,brain, Vu,brain, and fu,plasma. […] Kp,uu,cell represents the steady-state ratio of intracellular to extracellular unbound drug concentrations, describing the drug transport across the cellular membrane.
The unbound brain-to-plasma concentration ratio, Kp,uu,brain, was calculated by using the three compound-specific parameters: Kp,brain, Vu,brain, and fu,plasma:(4) Kp,uu,brain=Kp,brain/Vu,brain·fu,plasma
The unbound intracellular-to-extracellular (interstitial) concentration ratio, Kp,uu,cell, was estimated by using the Vu,brain and fu,brain parameters:(5) Kp,uu,cell=Vu,brain·fu,brain
Due to the multiparameter character of Kp,uu,brain and Kp,uu,cell assessment (Equations (4) and (5)), the estimation of variability around the mean values was calculated using an error propagation method as described in Loryan et al. (2017).
The Kp,uu,brain values were further used to calculate the unbound drug concentration in the brain interstitial fluid Cu,brain,ISF, according to Loryan et al. (2014):(6) Cu,brain,ISF=Kp,uu,brain·Cu,plasma

[4] = Systemic pharmacokinetic parameters used in simulation exercise; format: in vivo, rat; conditions: parameter used in simulation; for clearance / Vd: plasma; for clearance: rat 0.3 kg, read-out: Systemic clearance, CL (converted); for Vd: rat, read-out: Apparent volume of distribution, Vd
Method: In order to minimize the usage of animals and gain high confidence in the tissue distribution, a 4 h constant intravenous infusion study was designed based on the systemic pharmacokinetic parameters determined elsewhere. The catheters were surgically implanted a day before the PK experiment. The rats (n = 3 per compound) were then individually placed into a CMA 120 system (CMA, Solna, Sweden). […] A dose of 20 mg/kg was administered as a combination of an initial short 10 min infusion as a loading dose followed by a constant infusion up to 4 h, targeting a steady-state total plasma concentration of around 1000 ng/mL for each compound (based on the pilot study results). Blood was collected into heparinized Eppendorf tubes via a femoral artery catheter at 0 (before infusion starts) 1, 2, 3, and 4 h after the infusion started and immediately centrifuged at 10,000 rpm for 5 min at +4 °C. Plasma was then collected and kept at −20 °C. At 4 h, the rats were anesthetized via inhalation of 2.5% isoflurane (Abbot Scandinavia, Solna, Sweden), balanced with 1.5 L/min oxygen, after which the terminal blood and tissue samples were collected. […] The tissue samples (brain, spinal cord, liver, and kidney) were rapidly removed, pre-weighed into a 2 mL hard tissue homogenizing tube with mini-beads, and subsequently homogenized in 2 volumes of MQ water using a 4-Place Bead Mill Homogenizer (VWR, Stockholm, Sweden) at the maximal speed for 2 min and thereafter kept at +4 °C. The plasma and tissue homogenate samples were stored at −20 °C until LC–MS analysis.
The simulation was performed at a given initial total plasma concentration to be equal to the steady-state concentrations obtained in the neuroPK study, utilizing the parameters listed in Supplementary Table S4. A two-compartment model consisting of blood and brain compartments with a focus on the unbound concentrations was used for the simulation exercise (see details on the structure of the model in Supplementary Figure S5). The representative unbound plasma and brain profiles are presented in Supplementary Figure S6.
as §1, §2, §3, §4, §5, §6, §7, §8, §9, §10

Structure (SMILES)	Clin (rate of BBB transport) [1] [L/h]	Clout (rate of BBB transport) [1] [L/h]	Pe rat [1] [mL/min]	Pe (permeability coefficient) [2] [×10⁻⁶ cm/s]	concentration at 4 h [3] [nM]	Kp uu at 4 h ([3]; brain)	Kp uu at 4 h [3]	fold difference in Kp,uu,brain, S-CE-123 vs R-modafinil [3]	Kp uu [3]	Kp,uu at the blood–spinal cord barrier (BSCB) [3]	Systemic clearance unbound, Clu [4] [L/h]	clearance [4] [mL/min]	Vd [4] [L]
[O-][S@@+](Cc1cncs1)C(c1ccccc1)c1ccccc1 [S-CE-123]	0.033	0.071	0.545	50	386	0.5	0.46 ± 0.032	ca. 5 fold	0.18 ± 0.09	closer to unity	0.046	3.07	0.232
NC(=O)C[S@@+]([O-])C(c1ccccc1)c1ccccc1 [R-modafinil, reference compound]	0.025	0.261	0.422	38.3	282	0.1	0.097 ± 0.034	–	0.85 ± 0.6	dominating net active efflux	1.194	25	1.02
